Test results from ChEMBL document CHEMBL6114969, “Ultra-short lipopeptides containing d-amino acid exhibiting excellent stability and antibacterial activity against gram-positive bacteria” (Eur J Med Chem, 2025).
In brackets after ≈: the same amount, converted by molar mass. Where a SMILES comes first, the peptide text is derived from it. Bridges are numbered along the chain shown (N, C = ends). [ ]: non-standard residue; d: D form. The star is where a group is joined. X1 = CC[C@H](C)CCCCC(=O)*; Dab = NCC[C@H](N)C(=O)O

Legend:
[1] = Retention time of compound by RP-HPLC analysis; assay type: physicochemical
Staphylococcus aureus [2] = assay: Antibacterial activity against methicillin-resistant Staphylococcus aureus ATCC 33591 incubated for 18 to 24 hrs in presence of 1 mg/ml of chymotrypsin by broth microdilution method; assay type: functional; details: time 18-24 hrs
Staphylococcus aureus [3] = assay: Antibacterial activity against methicillin-resistant Staphylococcus aureus ATCC 33591 incubated for 18 to 24 hrs in presence of 2 mg/ml of chymotrypsin by broth microdilution method; assay type: functional; details: time 18-24 hrs
Staphylococcus aureus [4] = assay: Antibacterial activity against methicillin-resistant Staphylococcus aureus ATCC 33591 assessed as fold change in MIC incubated for 18 to 24 hrs in presence of 10 percent FBS by broth microdilution method; assay type: functional; details: time 18-24 hrs
Staphylococcus aureus [5] = assay: Antibacterial activity against methicillin-resistant Staphylococcus aureus ATCC 33591 assessed as fold change in MIC incubated for 18 to 24 hrs in presence of NaCl by broth microdilution method; assay type: functional; details: time 18-24 hrs
Staphylococcus aureus [6] = assay: Antibacterial activity against methicillin-resistant Staphylococcus aureus ATCC 33591 incubated for 18 to 24 hrs in presence of 2 mg/ml of trypsin by broth microdilution method; assay type: functional; details: time 18-24 hrs
Staphylococcus aureus [7] = assay: Antibacterial activity against methicillin-resistant Staphylococcus aureus ATCC 33591 assessed as fold change in MIC incubated for 18 to 24 hrs in presence of 10 percent mouse serum by broth microdilution method; assay type: functional; details: time 18-24 hrs
Staphylococcus aureus [8] = assay: Antibacterial activity against Staphylococcus aureus ATCC 29213 incubated for 18 to 24 hrs by broth microdilution method; assay type: functional; details: time 18-24 hrs
[9] = system: Staphylococcus epidermidis; assay: Antibacterial activity against Staphylococcus epidermidis ATCC 12228 incubated for 18 to 24 hrs by broth microdilution method; assay type: functional; details: time 18-24 hrs
[10] = Hemolytic activity in mouse Red blood cells incubated for 1 hr by absorbance based analysis; assay type: toxicity, cell-based; details: erythrocyte
Staphylococcus aureus [11] = assay: Antibacterial activity against Staphylococcus aureus ATCC 25923 incubated for 18 to 24 hrs by broth microdilution method; assay type: functional; details: time 18-24 hrs
Staphylococcus aureus [12] = assay: Antibacterial activity against methicillin-resistant Staphylococcus aureus ATCC 33591 incubated for 18 to 24 hrs by broth microdilution method; assay type: functional; details: time 18-24 hrs
Enterococcus faecalis = assay: Antibacterial activity against Enterococcus faecalis ATCC 29212 incubated for 18 to 24 hrs by broth microdilution method; assay type: functional; details: time 18-24 hrs
Staphylococcus aureus [13] = assay: Antibacterial activity against methicillin-resistant Staphylococcus aureus ATCC 33591 incubated for 18 to 24 hrs in presence of 0.5 mg/ml of trypsin by broth microdilution method; assay type: functional; details: time 18-24 hrs
Staphylococcus aureus [14] = assay: Antibacterial activity against methicillin-resistant Staphylococcus aureus ATCC 33591 incubated for 18 to 24 hrs in presence of 1 mg/ml of pepsin by broth microdilution method; assay type: functional; details: time 18-24 hrs
Staphylococcus aureus [15] = assay: Antibacterial activity against methicillin-resistant Staphylococcus aureus ATCC 33591 incubated for 18 to 24 hrs in presence of 1 mg/ml of trypsin by broth microdilution method; assay type: functional; details: time 18-24 hrs
Staphylococcus aureus [16] = assay: Antibacterial activity against methicillin-resistant Staphylococcus aureus ATCC 33591 incubated for 18 to 24 hrs in presence of 0.5 mg/ml of pepsin by broth microdilution method; assay type: functional; details: time 18-24 hrs
Staphylococcus aureus [17] = assay: Antibacterial activity against methicillin-resistant Staphylococcus aureus ATCC 33591 incubated for 18 to 24 hrs in presence of 0.5 mg/ml of chymotrypsin by broth microdilution method; assay type: functional; details: time 18-24 hrs
Staphylococcus aureus [18] = assay: Antibacterial activity against methicillin-resistant Staphylococcus aureus ATCC 33591 assessed as fold change in MIC incubated for 18 to 24 hrs in presence of MgCl2 by broth microdilution method; assay type: functional; details: time 18-24 hrs
Staphylococcus aureus [19] = assay: Antibacterial activity against methicillin-resistant Staphylococcus aureus ATCC 33591 incubated for 18 to 24 hrs in presence of 2 mg/ml of pepsin by broth microdilution method; assay type: functional; details: time 18-24 hrs
Staphylococcus aureus [20] = assay: Antibacterial activity against drug-resistant Staphylococcus aureus ATCC 25923 incubated for 18 to 24 hrs; assay type: functional; details: time 18-24 hrs
Staphylococcus aureus [21] = assay: Antibacterial activity against gentamicin-resistant Staphylococcus aureus ATCC 25923 incubated for 18 to 24 hrs; assay type: functional; details: time 18-24 hrs
Staphylococcus aureus [22] = assay: Antibacterial activity against ciprofloxacin-resistant Staphylococcus aureus ATCC 25923 incubated for 18 to 24 hrs; assay type: functional; details: time 18-24 hrs
Staphylococcus aureus [23] = assay: Antibacterial activity against polymyxin B-resistant methicillin-resistant Staphylococcus aureus ATCC 33591 incubated for 18 to 24 hrs; assay type: functional; details: time 18-24 hrs
Staphylococcus aureus [24] = assay: Antibacterial activity against polymyxin B-resistant Staphylococcus aureus ATCC 25923 incubated for 18 to 24 hrs; assay type: functional; details: time 18-24 hrs
Staphylococcus aureus [25] = assay: Antibacterial activity against methicillin-resistant Staphylococcus aureus ATCC 33591 infected in Balb/c mouse model of skin wound infection assessed as crusted back wound at 10 mg/kg, ip administered thrice at 1, 24 and 48 hrs post-infection measured after 9 days relative to control; assay type: functional; details: time 9 day
Staphylococcus aureus [26] = assay: Antibacterial activity against drug-resistant methicillin-resistant Staphylococcus aureus ATCC 33591 incubated for 18 to 24 hrs; assay type: functional; details: time 18-24 hrs
Staphylococcus aureus [27] = assay: Antibacterial activity against gentamicin-resistant methicillin-resistant Staphylococcus aureus ATCC 33591 incubated for 18 to 24 hrs; assay type: functional; details: time 18-24 hrs
Staphylococcus aureus [28] = assay: Antibacterial activity against ciprofloxacin-resistant methicillin-resistant Staphylococcus aureus ATCC 33591 incubated for 18 to 24 hrs; assay type: functional; details: time 18-24 hrs
Staphylococcus aureus [29] = assay: Antibacterial activity against methicillin-resistant Staphylococcus aureus ATCC 33591 infected in Balb/c mouse model of skin wound infection assessed as wound heal at 10 mg/kg, ip administered thrice at 1, 24 and 48 hrs post-infection measured after 14 days relative to control; assay type: functional; details: time 14 day
[30] = Stability in mouse serum assessed as compound degradation measured upto 96 hrs by RP-HPLC analysis; assay type: ADME, cell-free; details: read-out: Drug degradation
[31] = Stability in mouse serum assessed as half life measured upto 96 hrs by RP-HPLC analysis; assay type: ADME, cell-free

| SMILES | Retention_time [1] [min] | MIC (Staphylococcus aureus [2]) [µM] | MIC (Staphylococcus aureus [3]) [µM] | fold change (FC) (Staphylococcus aureus [4]) | fold change (FC) (Staphylococcus aureus [5]) | MIC (Staphylococcus aureus [6]) [µM] | fold change (FC) (Staphylococcus aureus [7]) | MIC (Staphylococcus aureus [8]) [µM] | MIC [9] [µM] | HC10 [10] [µM] | MIC (Staphylococcus aureus [11]) [µM] | MIC (Staphylococcus aureus [12]) [µM] | MIC (Enterococcus faecalis) [µM] | MIC (Staphylococcus aureus [13]) [µM] | MIC (Staphylococcus aureus [14]) [µM] | MIC (Staphylococcus aureus [15]) [µM] | MIC (Staphylococcus aureus [16]) [µM] | MIC (Staphylococcus aureus [17]) [µM] | fold change (FC) (Staphylococcus aureus [18]) | MIC (Staphylococcus aureus [19]) [µM] | other results |
| --- | --- | --- | --- | --- | --- | --- | --- | --- | --- | --- | --- | --- | --- | --- | --- | --- | --- | --- | --- | --- | --- |
| CCCCCCCCCCCC(=O)N[C@@H](CCCNC(=N)N)C(=O)N[C@H](CCCNC(=N)N)C(=O)N[C@@H](Cc1c[nH]c2ccccc12)C(=O)O | 18.997 | 32 | 32 | 8 | <3 | 32 | 4 | 4 (≈ 2.8 µg/mL) | 2 (≈ 1.4 µg/mL) | 128 | 4 (≈ 2.8 µg/mL) | 4 (≈ 2.8 µg/mL) | 8 (≈ 5.59 µg/mL) | 16 | 64 | 32 | 64 | 16 | <3 | 64 |  |
| CCCCCCCCCCCC(=O)N[C@H](CCCNC(=N)N)C(=O)N[C@@H](CCCNC(=N)N)C(=O)N[C@H](Cc1c[nH]c2ccccc12)C(=O)O | 19.092 | 8 | 8 | 8 | <3 | 32 | 4 | 4 (≈ 2.8 µg/mL) | 2 (≈ 1.4 µg/mL) | 128 | 4 (≈ 2.8 µg/mL) | 4 (≈ 2.8 µg/mL) | 16 (≈ 11.2 µg/mL) | 8 | 8 | 16 | 4 | 8 | <3 | 8 |  |
| CC(C)CCCCC(=O)N[C@@H](CCN)C(=O)N[C@H](C(=O)N[C@@H](CCN)C(=O)N[C@H]1CCNC(=O)[C@H]([C@@H](C)O)NC(=O)[C@H](CCN)NC(=O)[C@H](CCN)NC(=O)[C@H](CC(C)C)NC(=O)[C@@H](Cc2ccccc2)NC(=O)[C@H](CCN)NC1=O)[C@@H](C)O.CC[C@H](C)CCCCC(=O)N[C@@H](CCN)C(=O)N[C@H](C(=O)N[C@@H](CCN)C(=O)N[C@H]1CCNC(=O)[C@H]([C@@H](C)O)NC(=O)[C@H](CCN)NC(=O)[C@H](CCN)NC(=O)[C@H](CC(C)C)NC(=O)[C@@H](Cc2ccccc2)NC(=O)[C@H](CCN)NC1=O)[C@@H](C)O (X1-[Dab]T[Dab][Dab][Dab][dF]L[Dab][Dab]T; lactam 4-C) |  |  |  |  |  |  |  | 4 | 2 |  | 4 | 16 | 128 |  |  |  |  |  |  |  | MIC (Staphylococcus aureus [20]): > 128 µM; MIC (Staphylococcus aureus [21]): > 128 µM; MIC (Staphylococcus aureus [22]): 128 µM; MIC (Staphylococcus aureus [23]): 2050 µM; MIC (Staphylococcus aureus [24]): 512 µM; Activity (Staphylococcus aureus [25]): 100%; MIC (Staphylococcus aureus [26]): 128 µM; MIC (Staphylococcus aureus [27]): 128 µM; MIC (Staphylococcus aureus [28]): 4 µM; Activity (Staphylococcus aureus [29]): 100% |
| CCCCCCCCCCCC(=O)N[C@H](CCCNC(=N)N)C(=O)N[C@@H](CCCNC(=N)N)C(=O)N[C@@H](Cc1c[nH]c2ccccc12)C(=O)O | 19.259 | 32 | 128 | 8 | <3 | 128 | 4 | 4 (≈ 2.8 µg/mL) | 2 (≈ 1.4 µg/mL) | 64 | 4 (≈ 2.8 µg/mL) | 4 (≈ 2.8 µg/mL) | 8 (≈ 5.59 µg/mL) | 64 | 16 | 64 | 8 | 16 | <3 | 32 |  |
| CCCCCCCCCCCC(=O)N[C@@H](CCCNC(=N)N)C(=O)N[C@@H](CCCNC(=N)N)C(=O)N[C@@H](Cc1c[nH]c2ccccc12)C(=O)O | 18.643 | > 128 | > 128 | 8 | <3 | > 128 | 4 | 4 (≈ 2.8 µg/mL) | 2 (≈ 1.4 µg/mL) | 128 | 4 (≈ 2.8 µg/mL) | 4 (≈ 2.8 µg/mL) | 8 (≈ 5.59 µg/mL) | > 128 | 32 | > 128 | 16 | > 128 | <3 | 64 | metabolised at 96 h [30]: ~100%; half-life [31]: 17.4 h |
